target: Glycogen synthase kinase-3 beta (Homo sapiens, UniProt P49841); test: GSK-3β activity assay
Sequence (P49841 whole entry): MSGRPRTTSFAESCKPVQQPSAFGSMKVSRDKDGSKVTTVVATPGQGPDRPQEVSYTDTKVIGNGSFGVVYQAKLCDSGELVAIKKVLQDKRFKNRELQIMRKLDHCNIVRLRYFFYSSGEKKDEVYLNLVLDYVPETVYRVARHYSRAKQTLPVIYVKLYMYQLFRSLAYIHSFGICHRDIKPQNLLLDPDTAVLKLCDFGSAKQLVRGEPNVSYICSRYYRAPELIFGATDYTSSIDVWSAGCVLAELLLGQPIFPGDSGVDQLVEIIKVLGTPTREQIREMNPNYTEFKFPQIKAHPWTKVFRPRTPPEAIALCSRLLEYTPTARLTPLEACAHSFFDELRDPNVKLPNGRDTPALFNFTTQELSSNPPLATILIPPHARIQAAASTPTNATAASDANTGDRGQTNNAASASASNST
Method: In a typical assay, 10 µL of test compound of different concentrations (dissolved in dimethyl sulfoxide [DMSO] and diluted with assay buffer) and 10 µL (20 ng) of enzyme were added to each well followed by 20 µL of assay buffer containing 25 µM substrate and 1 µM ATP. The final DMSO concentration in the reaction mixturewas less than 1%. After incubation at 30 °C for 30 min, the enzymatic reaction was quenched with 40 µL of Kinase-Glo reagent. Luminescence was recorded after 10 min using Infinite F200 PRO multimode reader (Tecan).

Compared with COc1ccccc1-n1cc(CSc2nc(-c3ccccc3)cc(=O)n2C)nn1 [Pyrimidin-4-one-1,2,3-triazole conjugate, 3i], Cc1ccccc1-n1cc(CSc2nc(-c3ccccc3)cc(=O)n2C)nn1 [Pyrimidin-4-one-1,2,3-triazole conjugate, 3d] is 4.3-fold lower in IC50: 1310 nM for the first, 302 nM for the second.

Compared with Cn1c(SCc2cn(-c3cccnc3)nn2)nc(-c2ccccc2)cc1=O [Pyrimidin-4-one-1,2,3-triazole conjugate, 3l], Cn1c(SCc2cn(-c3ccccc3)nn2)nc(-c2ccccc2)cc1=O [Pyrimidin-4-one-1,2,3-triazole conjugate, 3e] is 1.9-fold lower in IC50: 1740 nM for the first, 916 nM for the second. The second is the more potent here.

Compared with Cn1c(SCc2cn(-c3cccc(Cl)c3)nn2)nc(-c2ccccc2)cc1=O [Pyrimidin-4-one-1,2,3-triazole conjugate, 3k], Cn1c(SCc2cn(-c3cccc([N+](=O)[O-])c3)nn2)nc(-c2ccccc2)cc1=O [Pyrimidin-4-one-1,2,3-triazole conjugate, 3r] is 3.3-fold lower in IC50: 502 nM for the first, 153 nM for the second. The second is the more potent here.

Cn1c(SCc2cn(-c3ccccc3Br)nn2)nc(-c2ccccc2)cc1=O [Pyrimidin-4-one-1,2,3-triazole conjugate, 3c] and Cn1c(SCc2cn(-c3ccccc3Cl)nn2)nc(-c2ccccc2)cc1=O [Pyrimidin-4-one-1,2,3-triazole conjugate, 3m] are within 1.5-fold of each other in IC50: 437 nM for the first, 577 nM for the second.

CCOc1ccc(-n2cc(CSc3nc(-c4ccccc4)cc(=O)n3C)nn2)cc1 [Pyrimidin-4-one-1,2,3-triazole conjugate, 3h] and COc1ccc(-n2cc(CSc3nc(-c4ccccc4)cc(=O)n3C)nn2)cc1 [Pyrimidin-4-one-1,2,3-triazole conjugate, 3o] are within 1.5-fold of each other in IC50: 1440 nM for the first, 1140 nM for the second.

First: Cn1c(SCc2cn(-c3ccc(F)cc3)nn2)nc(-c2ccccc2)cc1=O [Pyrimidin-4-one-1,2,3-triazole conjugate, 3b]
Second: Cn1c(SCc2cn(-c3ccc(Cl)cc3)nn2)nc(-c2ccccc2)cc1=O [Pyrimidin-4-one-1,2,3-triazole conjugate, 3p]
The IC50 of the first is 7.8-fold lower: 200 nM for the first, 1560 nM for the second. The first is the more potent here.

Compared with Cc1ccc(-n2cc(CSc3nc(-c4ccccc4)cc(=O)n3C)nn2)cc1C [Pyrimidin-4-one-1,2,3-triazole conjugate, 3n], Cn1c(SCc2cn(-c3ccc(Br)cc3)nn2)nc(-c2ccccc2)cc1=O [Pyrimidin-4-one-1,2,3-triazole conjugate, 3a] is 9.1-fold higher in IC50: 82 nM for the first, 744 nM for the second. The first is the more potent here.

First: CCc1ccc(-n2cc(CSc3nc(-c4ccccc4)cc(=O)n3C)nn2)cc1 [Pyrimidin-4-one-1,2,3-triazole conjugate, 3g]
Second: Cn1c(SCc2cn(-c3ccc(C(C)(C)C)cc3)nn2)nc(-c2ccccc2)cc1=O [Pyrimidin-4-one-1,2,3-triazole conjugate, 3f]
The IC50 of the first is 14-fold lower: 94 nM for the first, 1340 nM for the second. The first is the more potent here.

Compared with Cn1c(SCc2cn(-c3ccccc3F)nn2)nc(-c2ccccc2)cc1=O [Pyrimidin-4-one-1,2,3-triazole conjugate, 3j], Cn1c(SCc2cn(-c3ccc([N+](=O)[O-])cc3)nn2)nc(-c2ccccc2)cc1=O [Pyrimidin-4-one-1,2,3-triazole conjugate, 3q] is 4.8-fold higher in IC50: 122 nM for the first, 587 nM for the second. The first is the more potent here.

From BindingDB's records for doi:10.1016/j.bioorg.2016.07.007 (Jamia Hamdard (Hamdard University), 2016)
